Test results: paper PMC3684613 (PLoS ONE, 2013)
Read-outs that look alike come from different tables or passages of the source.

Assays:
P. falciparum 3D7 [1] = tested on: P. falciparum 3D7; design: method as in ChEMBL-NTD; settings: ref ChEMBL-NTD, cited from earlier work
P. falciparum 3D7 [2] = experiment: DAPI stain fluorescent high content imaging assay, P. falciparum 3D7 (confirmatory screen, Avery); settings: Plasmodium falciparum; for EC50: 3D7, read-out: EC50_nM; for inhibition of growth at 5 µM: 3D7, read-out: percent_inh @ 5 uM
[3] = original screening data, source (GSK, GNF, StJude), several values separated by ';' in order of sources
[4] = values follow the order of the source (GNF; GSK; StJude)

Compound | EC50 (P. falciparum 3D7 [2]) [nM] | inhibition of growth at 5 µM (P. falciparum 3D7 [2]) [%] | other results
CCOC(=O)C1=C(c2ccccc2)N=c2sc(=Cc3cc(C)n(-c4ccc(F)cc4)c3C)c(=O)n2C1c1cccc(OC)c1OC (centres unmarked) [MMV666601] | 154 | 94 | EC50 (P. falciparum 3D7 [1]; source GNF (GNF-Pf id)): 2320 nM
Cc1ccc(N2C(=O)C3C(C2=O)C2(c4ccccc4)C(=O)C3(c3ccccc3)C(c3ccccc3)=C2c2ccccc2)cc1 (centres unmarked) [MMV666062] | 282 | 98 | EC50 (P. falciparum 3D7 [1]; source GSK (TCMDC id)): 869 nM
Oc1ccc(Br)cc1CN1CCN(Cc2cccc(F)c2)CC1 [MMV000356] | 1030 |  | EC50 (P. falciparum 3D7 [1]; [3]): 1400 nM
Cc1ccc(Nc2nc(NCCO)c3ccccc3n2)cc1C [MMV001038] | 428 |  | EC50 (P. falciparum 3D7 [1]; source GNF (GNF-Pf id)): 175 nM; EC50 (P. falciparum 3D7 [1]; source StJude (SJ id)): 843 nM
O=C(Nc1ccc(CN2CCOCC2)cc1)c1ccc(-c2ccc(Br)cc2)o1 [MMV665901] | 1360 | 96 | EC50 (P. falciparum 3D7 [1]; source GSK): 1120 nM
CSc1ccccc1C(=O)Nc1nc(-c2ccccn2)cs1 [MMV001246] | 206 | 98 | EC50 (P. falciparum 3D7 [1]; source StJude (SJ id)): 6820 nM
COc1ccc(C(=O)NC(c2ccccc2Cl)c2cc(Cl)c3cccnc3c2O)cc1 (centres unmarked) [MMV666022] | 830 | 96 | EC50 (P. falciparum 3D7 [1]; source GNF (GNF-Pf ids)): 2370 nM
FC(F)(F)c1ccc(Nc2nnnc3ccccc23)cc1 [MMV665935] |  | 77 | EC50 (P. falciparum 3D7 [1]; source GNF): 7720 nM; EC50 (P. falciparum 3D7 [1]; source GSK): 692 nM
COc1ccc(C=C2SC(=N)N(c3ccccc3OC)C2=O)cc1 [MMV666691] | 168 | 97 | EC50 (P. falciparum 3D7 [1]; source GSK (TCMDC id)): 300 nM
Cn1c(=O)n(C)c2cc(CNCCNc3ccnc4cc(Cl)ccc34)ccc21 [MMV665875] | 545 | 90 | EC50 (P. falciparum 3D7 [1]; [4]): 140 nM
O=C(Nc1ccc(N2CCN(Cc3ccccc3)CC2)cc1)c1cccs1 [MMV019670] | 1080 | 59 | EC50 (P. falciparum 3D7 [1]; [3]): 769 nM
Cc1ccc(-c2cc3c(nn2)-c2ccccc2C3=O)cc1 [MMV666021] | 94.4 | 99 | EC50 (P. falciparum 3D7 [1]; source GNF): 2000 nM
CCc1ccc(Nc2cc(C)c3ccc(O)cc3n2)cc1 [MMV000570] | 194 | 98 | EC50 (P. falciparum 3D7 [1]; source StJude (SJ id)): 732 nM
Cc1ccc(NC(=O)Nc2cccc(Cl)c2)cc1F [MMV000911] |  | 52 | EC50 (P. falciparum 3D7 [1]; [3]): 15000 nM
O=C(Nc1ccc(N2CCCCC2)c(Cl)c1)c1ccc(Br)o1 [MMV019700] | 735 | 96 | EC50 (P. falciparum 3D7 [1]; [3]): 549 nM
CCOc1cc(Cl)c(C(C)NC(=O)c2ccccc2)cc1OCC (centres unmarked) [MMV665800] | 1370 | 96 | EC50 (P. falciparum 3D7 [1]; source GSK): 875 nM
O=C(Nc1ccc(Br)cc1)Nc1cccc(Cl)c1 [MMV001318] |  | 94 | EC50 (P. falciparum 3D7 [1]; [3]): 15000 nM
COc1nc(Nc2ccc(C(C)C)cc2)nc(OC)n1 [MMV007808] | 1140 | 88 | EC50 (P. falciparum 3D7 [1]; [3]): 677 nM
COc1cc2c(cc1OC)C1=NNC(=O)C1=NC(C)(C)C2 [MMV084940] | 1040 |  | EC50 (P. falciparum 3D7 [1]; [3]): 1580 nM
CCCCNc1nc(NC(C)(C)C)nc(NC(C)(C)C)n1 [MMV665864] | 706 | 98 | EC50 (P. falciparum 3D7 [1]; [4]): 2160 nM
CC(=O)c1ccc(NC(=O)CSc2nc(-c3ccccc3Cl)ns2)cc1 [MMV666124] |  |  | EC50 (P. falciparum 3D7 [1]; source GSK (TCMDC ids)): 1130 nM; inhibition at 2.5 µM (P. falciparum 3D7 [2]; 3D7, read-out: % inh. At 2.5 uM): 88%
CN1CCN(c2ccc(Nc3c4ccccc4nc4ccccc34)cc2)CC1 [MMV006172] | 142 | 97 | EC50 (P. falciparum 3D7 [1]; source GNF (GNF-Pf id)): 56.7 nM; EC50 (P. falciparum 3D7 [1]; source GSK (TCMDC id)): 645 nM
COc1ccc(-c2nc(NC(=O)CS(=O)(=O)c3ccc(F)cc3)sc2C)cc1 [MMV665915] | 448 | 97 | EC50 (P. falciparum 3D7 [1]; source GNF (GNF-Pf id)): 212 nM; EC50 (P. falciparum 3D7 [1]; source GSK (TCMDC id)): 243 nM
Cc1cc(Nc2ccc(Cl)cc2)n2nc(C(F)(F)F)nc2n1 [MMV011256] | 212 |  | EC50 (P. falciparum 3D7 [1]; source GSK (TCMDC id)): 117 nM
O=C(NCc1ccco1)C1CCN(S(=O)(=O)c2ccc(Br)cc2)CC1 [MMV007430] | 939 | 93 | EC50 (P. falciparum 3D7 [1]; [3]): 362 nM
O=C(Nc1ccc(F)c(Cl)c1)Nc1ccc(Cl)c(Cl)c1 [MMV665953] | 2060 | 95 | EC50 (P. falciparum 3D7 [1]; source StJude): 5410 nM
COc1ccc(CNC(=O)c2cc3c(=O)n4ccccc4nc3n(CCc3ccccc3)c2=N)cc1 [MMV665881] | 1060 | 95 | EC50 (P. falciparum 3D7 [1]; [4]): 330 nM
O=C(Nc1ccc(-c2nc3ccccc3[nH]2)cc1)c1ccc(Cl)c(Cl)c1 [MMV665840] | 838 | 97 | EC50 (P. falciparum 3D7 [1]; [4]): 523 nM
